Reference: patent US20170334899A1, “AMINO-SUBSTITUTED ISOTHIAZOLES” (Bayer Pharma Aktiengesellschaft, priority 2014, published 2017)

Legend:
[1] = tested on: human cervical tumor cell line HeLa (ATCC CCL-2); assay: SAC-Formation - Nocodazole-Induced Assay; type: cell-based; details: Homo sapiens, HeLa, 24 h, HeLa cells, nocodazole 0.1 μg/ml together with test compound, decrease of mitotic cells (phospho-histone H3 Ser10)
Procedure, shortened: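 Loss of phospho-histone H3 Ser10-positive cells, counted against Hoechst-stained nuclei by high-content imaging, marked mitotic breakthrough. Compounds (0.005–20 μM, 0.5% DMSO) were co-dosed with 0.1 μg/ml nocodazole onto HeLa cells for 24 h at 37 °C. Curves were fitted with a four-parameter Hill equation.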

[2] = tested on: HeLa; assay: Proliferation assay (crystal violet), HeLa; type: cell-based; details: Homo sapiens, HeLa, 96 h, HeLa cells; 4 days incubation; crystal violet staining; read-out: IC50 inhibition of proliferation, HeLa
Procedure, shortened: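 Absorbance at 595 nm of crystal-violet-stained cells after 4 days' exposure to 0.001–10 μM compound (0.5% DMSO). Values normalized to a day-0 plate (0%) and untreated cells (100%); IC50 by 4-parameter fit.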

Row | IC50 [1] [nM] | IC50 [2] [nM] | Compound
1 | 4600 | 10000 | Cc1nsc(Nc2cncc(C(F)(F)F)n2)c1C(=O)Nc1ccc(OC2CCNCC2)nc1 [Example 13, 3-Methyl-N-[6-(piperidin-4-yloxy)pyridin-3-yl]-5-{[6-(trifluoromethyl)pyrazin-2-yl]-amino}-1,2-thiazole-4-carboxamide]
2 | 940 | 1500 | Cc1nsc(Nc2cncc(C(F)(F)F)n2)c1C(=O)Nc1ccc(OC2CCN(CCF)CC2)nc1 [Example 14, N-(6-{[1-(2-Fluoroethyl)piperidin-4-yl]oxy}pyridin-3-yl)-3-methyl-5-{[6-(trifluoro-methyl)pyrazin-2-yl]amino}-1,2-thiazole-4-carboxamide]
3 | 41 | 690 | Cc1nsc(Nc2cncc(C(F)(F)F)n2)c1C(=O)Nc1ccc(OC2CCN(CC(F)(F)F)CC2)nc1 [Example 16, 3-Methyl-N-(6-{[1-(2,2,2-trifluoroethyl)piperidin-4-yl]oxy}pyridin-3-yl)-5-{[6-(trifluoromethyl)pyrazin-2-yl]amino}-1,2-thiazole-4-carboxamide]
4 | 210 | 2400 | CC(=O)N1CCC(Oc2ccc(NC(=O)c3c(C)nsc3Nc3cncc(C(F)(F)F)n3)cn2)CC1 [Example 17, N-{6-[(1-Acetylpiperidin-4-yl)oxy]pyridin-3-yl}-3-methyl-5-{[6-(trifluoromethyl)-pyrazin-2-yl]amino}-1,2-thiazole-4-carboxamide]
5 | 44 | 1200 | Cc1nsc(Nc2cnc3ccccc3n2)c1C(=O)Nc1ccc(OC2CCN(C(=O)OC(C)(C)C)CC2)nc1 [Example 18, tert-Butyl 4-{[5-({[3-methyl-5-(quinoxalin-2-ylamino)-1,2-thiazol-4-yl]carbonyl}-amino)pyridin-2-yl]oxy}piperidine-1-carboxylate]
6 | 320 | 3500 | Cc1nsc(Nc2cnc3ccccc3n2)c1C(=O)Nc1ccc(OC2CCNCC2)nc1 [Example 19, 3-Methyl-N-[6-(piperidin-4-yloxy)pyridin-3-yl]-5-(quinoxalin-2-ylamino)-1,2-thiazole-4-carboxamide]
7 | 53 | 1500 | Cc1nsc(Nc2cnc3ccccc3n2)c1C(=O)Nc1ccc(OC2CCN(CC(F)F)CC2)nc1 [Example 20, N-(6-{[1-(2,2-difluoroethyl)piperidin-4-yl]oxy}pyridin-3-yl)-3-methyl-5-(quinoxalin-2-ylamino)-1,2-thiazole-4-carboxamide]
8 | 5800 | > 10000 | CCN(CC)CCNC(=O)c1cccc(NC(=O)c2c(C)nsc2Nc2cc(C#N)ccn2)c1 [Example 174, 5-[(4-cyanopyridin-2-yl)amino]-N-(3-{[2-(diethylamino)ethyl]carbamoyl}phenyl)-3-methyl-1,2-thiazole-4-carboxamide]
9 | 2200 | > 10000 | Cc1nsc(Nc2cc(C#N)ccn2)c1C(=O)Nc1cccc(C(=O)NC2CC2)c1 [Example 175, 5-[(4-cyanopyridin-2-yl)amino]-N-[3-(cyclopropylcarbamoyl)phenyl]-3-methyl-1,2-thiazole-4-carboxamide]
10 | 230 | 5000 | COC(=O)CCc1cccc(NC(=O)c2c(C)nsc2Nc2ccc(C#N)cn2)c1 [Example 176, methyl 3-{3-[({5-[(5-cyanopyridin-2-yl)amino]-3-methyl-1,2-thiazol-4-yl}carbonyl)amino]phenyl}propanoate]
11 | 3900 | > 10000 | Cc1nsc(Nc2cc(C#N)ccn2)c1C(=O)Nc1ccc(NC(=O)OC(C)(C)C)cc1 [Example 177, tert-butyl {4-[({5-[(4-cyanopyridin-2-yl)amino]-3-methyl-1,2-thiazol-4-yl}carbonyl)amino]phenyl}carbamate]
12 | 210 | 3300 | Cc1nsc(Nc2cnc3ccccc3n2)c1C(=O)Nc1cccc(NC(=O)OC(C)(C)C)c1 [Example 178, tert-butyl [3-({[3-methyl-5-(quinoxalin-2-ylamino)-1,2-thiazol-4-yl]carbonyl}amino)-phenyl]carbamate]
13 | 320 | 3800 | Cc1nsc(Nc2ccc(C#N)cn2)c1C(=O)Nc1cccc(NC(=O)OC(C)(C)C)c1 [Example 179, tert-butyl {3-[({5-[(5-cyanopyridin-2-yl)amino]-3-methyl-1,2-thiazol-4-yl}carbonyl)amino]phenyl}carbamate]
14 | 1300 | > 10000 | Cc1nsc(Nc2ccc(C#N)cn2)c1C(=O)Nc1cccc(N)c1 [Example 180, N-(3-aminophenyl)-5-[(5-cyanopyridin-2-yl)amino]-3-methyl-1,2-thiazole-4-carboxamide]
15 | 260 | 980 | Cc1nsc(Nc2cnc3ccccc3n2)c1C(=O)Nc1ccc(C(=O)OC(C)(C)C)cc1 [Example 181, tert-butyl 4-({[3-methyl-5-(quinoxalin-2-ylamino)-1,2-thiazol-4-yl]carbonyl}amino)benzoate]
16 | 25 | 660 | Cc1nsc(Nc2cc(C#N)ccn2)c1C(=O)Nc1ccc(C(=O)OC(C)(C)C)cc1 [Example 182, tert-butyl 4-[({5-[(4-cyanopyridin-2-yl)amino]-3-methyl-1,2-thiazol-4-yl}carbonyl)amino]benzoate]
17 | 1500 | 5000 | Cc1nsc(Nc2cc(C#N)ccn2)c1C(=O)Nc1cccc(NC(=O)C(C)(C)C)c1 [Example 183, 5-[(4-cyanopyridin-2-yl)amino]-N-{3-[(2,2-dimethylpropanoyl)amino]phenyl}-3-methyl-1,2-thiazole-4-carboxamide]
18 | 88 | 3800 | Cc1nsc(Nc2cnccn2)c1C(=O)Nc1ccc(C(=O)OC(C)(C)C)cc1 [Example 184, tert-butyl 4-({[3-methyl-5-(pyrazin-2-ylamino)-1,2-thiazol-4-yl]carbonyl}amino)benzoate]
19 | 1600 | > 10000 | Cc1nsc(Nc2cnc3ccccc3n2)c1C(=O)Nc1ccc(NC(=O)C(C)(C)C)cc1 [Example 185, N-{4-[(2,2-dimethylpropanoyl)amino]phenyl}-3-methyl-5-(quinoxalin-2-ylamino)-1,2-thiazole-4-carboxamide]
20 | 630 | 6500 | Cc1nsc(Nc2cnc3ccccc3n2)c1C(=O)Nc1cccc(NC(=O)C(C)(C)C)c1 [Example 186, N-{3-[(2,2-dimethylpropanoyl)amino]phenyl}-3-methyl-5-(quinoxalin-2-ylamino)-1,2-thiazole-4-carboxamide]
21 | 2200 | > 10000 | Cc1nsc(Nc2cnc3ccccc3n2)c1C(=O)Nc1ccc(C(=O)O)cc1 [Example 187, 4-({[3-methyl-5-(quinoxalin-2-ylamino)-1,2-thiazol-4-yl]carbonyl}amino)benzoic acid]
22 | 230 | > 10000 | Cc1nsc(Nc2cnc3ccccc3n2)c1C(=O)Nc1ccccc1S(C)(=O)=O [Example 188, 3-methyl-N-[2-(methylsulfonyl)phenyl]-5-(quinoxalin-2-ylamino)-1,2-thiazole-4-carboxamide]
23 | 150 | 940 | Cc1nsc(Nc2cncc(C(F)(F)F)n2)c1C(=O)Nc1ccc(OC2CCCN(C(=O)OC(C)(C)C)C2)nc1 (stereo not shown) [Example 189, tert-butyl 3-[(5-{[(3-methyl-5-{[6-(trifluoromethyl)pyrazin-2-yl]amino}-1,2-thiazol-4-yl)carbonyl]amino}pyridin-2-yl)oxy]piperidine-1-carboxylate]
24 | 75 | 420 | Cc1nsc(Nc2cncc(C(F)(F)F)n2)c1C(=O)Nc1ccc(OCCCNC(=O)OC(C)(C)C)nc1 [Example 190, tert-butyl {3-[(5-{[(3-methyl-5-{[6-(trifluoromethyl)pyrazin-2-yl]amino}-1,2-thiazoL-4-yl)carbonyl]amino}pyridin-2-yl)oxy]propyl}carbamate]
25 | 59 | 1600 | Cc1nsc(Nc2cncc(C(F)(F)F)n2)c1C(=O)Nc1ccc(OCCNC(=O)OC(C)(C)C)nc1 [Example 191, tert-butyl {2-[(5-{[(3-methyl-5-{[6-(trifluoromethyl)pyrazin-2-yl]amino}-1,2-thiazol-4-yl)carbonyl]amino}pyridin-2-yl)oxy]ethyl}carbamate]
26 | 37 | 1200 | Cc1nsc(Nc2cnc(C(F)(F)F)cn2)c1C(=O)Nc1ccc(OCCNC(=O)OC(C)(C)C)nc1 [Example 192, tert-butyl {2-[(5-{[(3-methyl-5-{[5-(trifluoromethyl)pyrazin-2-yl]amino}-1,2-thiazol-4-yl)carbonyl]amino}pyridin-2-yl)oxy]ethyl}carbamate]
27 | 470 | 2700 | Cc1nsc(Nc2cncc(C(F)(F)F)n2)c1C(=O)Nc1ccc(C(=O)OC(C)(C)C)cc1 [Example 193, tert-butyl tert-butyl 4-{[(3-methyl-5-{[6-(trifluoromethyl)pyrazin-2-yl]amino}-1,2-thiazol-4-yl)carbonyl]amino}benzoate]
28 | 230 | 2500 | Cc1nsc(Nc2cncc(C(F)(F)F)n2)c1C(=O)Nc1cccc(S(C)(=O)=O)c1 [Example 194, 3-methyl-N-[3-(methylsulfonyl)phenyl]-5-{[6-(trifluoromethyl)pyrazin-2-yl]amino}-1,2-thiazole-4-carboxamide]
29 | 660 | 3100 | Cc1nsc(Nc2cnc(C(F)(F)F)cn2)c1C(=O)Nc1cccc(S(C)(=O)=O)c1 [Example 195, 3-methyl-N-[3-(methylsulfonyl)phenyl]-5-{[5-(trifluoromethyl)pyrazin-2-yl]amino}-1,2-thiazole-4-carboxamide]
